Measurements reported in ChEMBL document CHEMBL1150930, “Metabolism of rosmarinic acid in rats” (J Nat Prod, 1998).

Key:
Parameters in all cases: dose 200 mg/kg, route oral
Rattus norvegicus [1] = test: Metabolic stability in Sprague-Dawley rat assessed as urinary excretion of m-hydroxyphenyl-propionic acid level at 200 mg/kg, po after 0 to 24 hrs by HPLC; format: ADME, organism-based, Urine; details: in vivo
Rattus norvegicus [2] = test: Metabolic stability in Sprague-Dawley rat assessed as urinary excretion of m-hydroxyphenyl-propionic acid level at 200 mg/kg, po after 0 to 8 hrs by HPLC; format: ADME, organism-based, Urine; details: in vivo
Rattus norvegicus [3] = test: Metabolic stability in Sprague-Dawley rat assessed as urinary excretion of trans-caffeic acid level at 200 mg/kg, po after 0 to 72 hrs by HPLC; format: ADME, organism-based, Urine; details: in vivo
Rattus norvegicus [4] = test: Metabolic stability in Sprague-Dawley rat assessed as urinary excretion of trans-caffeic acid level at 200 mg/kg, po after 0 to 36 hrs by HPLC; format: ADME, organism-based, Urine; details: in vivo
Rattus norvegicus [5] = test: Metabolic stability in Sprague-Dawley rat assessed as urinary excretion of m-hydroxyphenyl-propionic acid level at 200 mg/kg, po after 0 to 36 hrs by HPLC; format: ADME, organism-based, Urine; details: in vivo
Rattus norvegicus [6] = test: Metabolic stability in Sprague-Dawley rat assessed as urinary excretion of total metabolites at 200 mg/kg, po after 0 to 4 hrs by HPLC; format: ADME, organism-based, Urine; details: in vivo
Rattus norvegicus [7] = test: Metabolic stability in Sprague-Dawley rat assessed as urinary excretion of total metabolites at 200 mg/kg, po after 0 to 24 hrs by HPLC; format: ADME, organism-based, Urine; details: in vivo
Rattus norvegicus [8] = test: Metabolic stability in Sprague-Dawley rat assessed as urinary excretion of trans-caffeic acid 4-O-sulfate level at 200 mg/kg, po after 0 to 24 hrs by HPLC; format: ADME, organism-based, Urine; details: in vivo
Rattus norvegicus [9] = test: Metabolic stability in Sprague-Dawley rat assessed as urinary excretion of trans-m-coumaric acid level at 200 mg/kg, po after 0 to 48 hrs by HPLC; format: ADME, organism-based, Urine; details: in vivo
Rattus norvegicus [10] = test: Metabolic stability in Sprague-Dawley rat assessed as urinary excretion of m-hydroxyphenyl-propionic acid level at 200 mg/kg, po after 0 to 12 hrs by HPLC; format: ADME, organism-based, Urine; details: in vivo
[11] = Metabolic stability in Sprague-Dawley rat assessed as urinary excretion of unchanged drug level at 200 mg/kg, po after 0 to 24 hrs by HPLC; format: ADME, organism-based; details: urine, read-out: Activity
Rattus norvegicus [12] = test: Metabolic stability in Sprague-Dawley rat assessed as urinary excretion of trans-caffeic acid level at 200 mg/kg, po after 0 to 8 hrs by HPLC; format: ADME, organism-based, Urine; details: in vivo
Rattus norvegicus [13] = test: Metabolic stability in Sprague-Dawley rat assessed as urinary excretion of trans-caffeic acid 4-O-sulfate level at 200 mg/kg, po after 0 to 36 hrs by HPLC; format: ADME, organism-based, Urine; details: in vivo
Rattus norvegicus [14] = test: Metabolic stability in Sprague-Dawley rat assessed as urinary excretion of trans-m-coumaric acid level at 200 mg/kg, po after 0 to 12 hrs by HPLC; format: ADME, organism-based, Urine; details: in vivo
Rattus norvegicus [15] = test: Metabolic stability in Sprague-Dawley rat assessed as urinary excretion of trans-caffeic acid 4-O-sulfate level at 200 mg/kg, po after 0 to 48 hrs by HPLC; format: ADME, organism-based, Urine; details: in vivo
[16] = Metabolic stability in Sprague-Dawley rat assessed as urinary excretion of unchanged drug level at 200 mg/kg, po after 0 to 72 hrs by HPLC; format: ADME, organism-based; details: urine, read-out: Activity
Rattus norvegicus [17] = test: Metabolic stability in Sprague-Dawley rat assessed as urinary excretion of trans-caffeic acid level at 200 mg/kg, po after 0 to 12 hrs by HPLC; format: ADME, organism-based, Urine; details: in vivo
Rattus norvegicus [18] = test: Metabolic stability in Sprague-Dawley rat assessed as urinary excretion of total metabolites at 200 mg/kg, po after 0 to 48 hrs by HPLC; format: ADME, organism-based, Urine; details: in vivo
Rattus norvegicus [19] = test: Metabolic stability in Sprague-Dawley rat assessed as urinary excretion of trans-ferulic acid 4-O-sulfate level at 200 mg/kg, po after 0 to 24 hrs by HPLC; format: ADME, organism-based, Urine; details: in vivo
Rattus norvegicus [20] = test: Metabolic stability in Sprague-Dawley rat assessed as urinary excretion of trans-caffeic acid 4-O-sulfate level at 200 mg/kg, po after 0 to 4 hrs by HPLC; format: ADME, organism-based, Urine; details: in vivo
Rattus norvegicus [21] = test: Metabolic stability in Sprague-Dawley rat assessed as urinary excretion of total metabolites at 200 mg/kg, po after 0 to 12 hrs by HPLC; format: ADME, organism-based, Urine; details: in vivo
Rattus norvegicus [22] = test: Metabolic stability in Sprague-Dawley rat assessed as urinary excretion of total metabolites at 200 mg/kg, po after 0 to 36 hrs by HPLC; format: ADME, organism-based, Urine; details: in vivo
[23] = Metabolic stability in Sprague-Dawley rat assessed as urinary excretion of unchanged drug level at 200 mg/kg, po after 0 to 8 hrs by HPLC; format: ADME, organism-based; details: urine, read-out: Activity
Rattus norvegicus [24] = test: Metabolic stability in Sprague-Dawley rat assessed as urinary excretion of m-hydroxyphenyl-propionic acid level at 200 mg/kg, po after 0 to 72 hrs by HPLC; format: ADME, organism-based, Urine; details: in vivo
[25] = Metabolic stability in Sprague-Dawley rat assessed as urinary excretion of unchanged drug level at 200 mg/kg, po after 0 to 36 hrs by HPLC; format: ADME, organism-based; details: urine, read-out: Activity
Rattus norvegicus [26] = test: Metabolic stability in Sprague-Dawley rat assessed as urinary excretion of trans-m-coumaric acid 3-O-sulfate level at 200 mg/kg, po after 0 to 12 hrs by HPLC; format: ADME, organism-based, Urine; details: in vivo

Compound `O=C(/C=C/c1ccc(O)c(O)c1)O[C@H](Cc1ccc(O)c(O)c1)C(=O)O` [ROSMARINIC ACID] has an Activity (Rattus norvegicus [1]) of 14.527%, an Activity (Rattus norvegicus [2]) of 0.949% and an Activity (Rattus norvegicus [3]) of 0.117%. The Activity (Rattus norvegicus [4]) was 0.086%, the Activity (Rattus norvegicus [5]) was 17.43% and the Activity (Rattus norvegicus [6]) was 0.17%. It also gave an Activity (Rattus norvegicus [7]) of 23.143%, an Activity (Rattus norvegicus [8]) of 0.149% and an Activity (Rattus norvegicus [9]) of 0.413%. The Activity (Rattus norvegicus [10]) was 5.252%, the dose excreted [11] was 0.077% and the Activity (Rattus norvegicus [12]) was 0.027%. For the same compound, the Activity (Rattus norvegicus [13]) was 0.154%, the Activity (Rattus norvegicus [14]) was 0.1% and the Activity (Rattus norvegicus [15]) was 0.154%. For the same compound, the dose excreted [16] was 0.077%, the Activity (Rattus norvegicus [17]) was 0.037% and the Activity (Rattus norvegicus [18]) was 31.836%. The Activity (Rattus norvegicus [19]) was 0.538%, the Activity (Rattus norvegicus [20]) was 0.038% and the Activity (Rattus norvegicus [21]) was 6.241%. The Activity (Rattus norvegicus [22]) was 30.483%, the dose excreted [23] was 0.077% and the Activity (Rattus norvegicus [24]) was 18.357%. It also gave a dose excreted [25] of 0.077% and an Activity (Rattus norvegicus [26]) of 0.174%.
